Results as given in patent publication EP4463162B1, “CONNEXIN 43 FOR USE IN TREATING BRCA1/2-MUTATED CANCER” (Fundación Profesor Novoa Santos, priority 2022, dated 2023).

Key:
HCC1937 cells [1] = experiment: Colony formation assay; assay type: cell-based, human; conditions: 100 µM olaparib, seven days, upon Cx43 restitution
Protocol: For assessing the clonogenic capacity of tumour cells lines, they were plated as single-cell suspensions (5 000-10 000 cells) in 6 or 12-well plates (Corning) and incubated for 6-7 days with media change every 48 h. After this time, they were washed with PBS, fixed with 4 % PFA for 15 min at room temperature and stained with 0.1 % crystal violet dye (Sigma-Aldrich) for 20 min at room temperature. They were then rinsed with PBS, air dried and photographed. The staining was dissolved with 30 % acetic acid for 10 min on a shaker. The eluent was then transferred to a 96-well plate and the absorbance, indicative of colony growth, measured at 570 nm using a NanoQuant microplate reader Infinite M200 (Tecan).
For small extracellular vesicle (sEV) isolation, sEV donor cells were grown in 175 cm^2 flasks (Thermo Fisher Scientific) until 85 % confluence. […] Donor cells final density was calculated, and supernatants derived from the same number of cells were ultracentrifuged at 100 000 x g for 90 min at 4 °C using a Hitachi Ultracentrifuge CP100NX with a P70AT rotor (Hitachi). […]
Cell viability measures were either relativized to untreated controls for each cell line, in order to account for the already reduced proliferation of Cx43-restituted cells (left graph) or reported as raw absorbance values (right graph). […]

HCC1937 cells [2] = experiment: Intracellular reactive oxygen species (ROS) measurement (DCFDA); assay type: cell-based, human; conditions: 96 h
Protocol: Then, ROS production was determined using the DCFDA/H2DCFDA - Cellular ROS Assay Kit (Abcam) following manufacturer's instructions. […] Afterwards, all cell conditions were washed with 100 µL/well of 1X Buffer and then stained with 100 µL/well of 25 µM 2',7' -dichlorofluorescin diacetate (DCFDA) working solution for 45 min at 37 °C in the dark. DCFDA is a fluorogenic dye, deacetylated by cellular esterases to a non-fluorescent compound, eventually oxidized by ROS into the highly fluorescent 2', 7' -dichlorofluorescein (DCF). DCFDA solution was removed and cells were washed once with phenol red-free DMEM with 10 % FBS. They were left for 1 h at 37 °C and fluorescence was measured in a Synergy HTX plate reader (BioTek) at 485/+-20 nm (excitation) and 528/+-20 nm (emission).
After ROS measurement, CCK-8 proliferation assay was performed. Briefly, medium was removed and replenished with 100 µL/well of complete RPMI. 10 µL of CCK-8 reagent were added to each well, and cells were incubated at 37 °C in the dark for 3 h. Absorbance was measured at 450 nm in a NanoQuant Infinite 200 plate reader (Tecan).
Background fluorescence of phenol red-free DMEM with 10 % FBS was subtracted from all ROS fluorescence values, which were then normalized against their respective proliferation absorbance values. Each experimental condition was further normalized against its untreated counterpart. […]

Compound: O=C(c1cc(Cc2n[nH]c(=O)c3ccccc23)ccc1F)N1CCN(C(=O)C2CC2)CC1 [Olaparib, olaparib]
- cell viability (colony formation) (HCC1937 cells [1]): profound decrease in HCC1937 cell viability
- ROS production (HCC1937 cells [2]; Cx43_HCC1937, olaparib 50 and 100 µM): increased
- ROS production (HCC1937 cells [2]; EV_HCC1937, olaparib 50 and 100 µM, dose-dependent): diminished
